{"source": "paper PMC4364341", "about": "“NBD delivery improves the disease phenotype of the golden retriever model of Duchenne muscular dystrophy” (Skeletal Muscle, 2014)", "key": {"[1]": {"settings": "dog, in vivo, iv", "description": "Having established a treatment regimen that provides efficacy of NBD in mice, we next asked whether such therapy could be applied to a larger animal model of DMD. […] In addition, normal hematology (white blood cell, red blood cell, platelet counts) and serum chemistry (ALT, AST, GGT, bilirubin, creatinine, potassium, creatine kinase) profiles were noted following a single IV injection of NBD in normal dogs (data not shown). Based on our collective data, a preclinical trial in GRMD dogs was initiated with four primary outcomes: skeletal muscle function, MRI of pelvic limb muscles, histopathologic features of skeletal muscles, and safety. Juvenile GRMD (n = 6) and wild type (n = 3) dogs at 2 months of age were treated for 4 months by IV infusions, 3× weekly, at 10 mg/Kg. Results were compared with those collected from untreated GRMD and wild type dogs through a separate, natural history study."}, "[2]": {"test_system": "GRMD dogs", "experiment": "Joint and pelvic angles, GRMD dogs", "format": "in vivo, dog", "settings": "n = 6", "description": "We previously reported that 6-month-old GRMD dogs have abnormally acute (contracted) TTJ angles while positioned in dorsal recumbence for force measurements. Other investigators have subsequently described methods to measure joint angles at maximal flexion and extension, with associated range of motion, in wild type dogs. The method of Jaegger et al.[29] is now utilized to measure pelvic limb tibiotarsal (hock, ankle), stifle (knee), and coxofemoral (hip) joint angles for ongoing natural history and preclinical trials in our laboratory. In each case, dogs were anesthetized (above) and positioned in lateral recumbence. Angles at rest, maximal flexion, and maximal extension were measured. To objectively characterize the cranioventral shift of the pelvis typically seen in GRMD dogs, we also measured the pelvic angle formed by two lines extending cranially from the tuber ischium, one drawn parallel to the lumbar spine and the other extending to the midpoint of the tuber coxae."}, "[3]": {"test_system": "GRMD dogs", "experiment": "Cranial sartorius (CS) circumference, GRMD dogs", "format": "in vivo, dog", "settings": "age 6 months, NBD 10 mg/kg IV 3x weekly for 4 months, n = 6", "description": "We have previously shown that the CS muscle undergoes dramatic hypertrophy in GRMD dogs and that this hypertrophy tracks with postural abnormalities. Accordingly, we use CS circumference measured at surgery during routine biopsy as a surrogate for muscle hypertrophy and associated postural changes in GRMD [24]. Dogs were anesthetized (above), and an incision was made over the cranial aspect of the thigh. In advance of biopsy, the CS muscle was isolated. Nylon suture was placed around the muscle at approximately midsection and tightened so as to snugly encircle the muscle belly. The two ends of the suture were secured with a pair of hemostats and then cut on the muscle side of the hemostat. The length in mm was divided by body mass in kg (mm/kg). An average of two measurements was recorded."}, "[4]": {"test_system": "GRMD dogs", "experiment": "Eccentric contraction decrement (ECD), GRMD dogs", "format": "in vivo, dog", "settings": "n = 6; for ECD (1-10): after 10 contractions; for ECD (1-30): after 30 contractions", "description": "Eccentric contractions were induced by stimulating the peroneal nerve using square wave pulses of 100 μs duration in a tetanic run for 1 s at a frequency of 50 Hz while simultaneously extending the TTJ with a servomotor (Aurora Scientific, Aurora, ON, Canada). The contraction was held isometric at the optimal joint angle, expressed as Lo here (see discussion above), for the first 900 ms. For the final 100 ms, the muscles of the cranial tibial compartment were stretched by the servomotor at 0.7 Lo/s, such that the muscles were displaced to 107% of Lo. Thus, the muscles of the cranial tibial compartment were repeatedly stretched to induce mechanical damage. Three sets of 10 stretches for a total of 30, each set separated by 4 min, were performed. Contraction-induced injury was quantified by the force (torque) deficit (Fd) using the following equation: Fd = (Maximal isometric tetanic force (Po) before stretch - Po after stretch/Po before stretch) × 100."}, "[5]": {"settings": "NBD group, age 2 months (start of treatment)"}, "[6]": {"settings": "age 6 months, NBD 10 mg/kg IV 3x weekly for 4 months"}}}
{"sequence": "TALDWSWLQTE [NBD, NBD peptide (…) fused to an Antennapedia protein transduction domain]", "values": [{"measurement": "Hematology and serum chemistry profiles", "setting": "[1]", "value": "normal"}, {"measurement": "Hip (Resting) angle", "setting": "[2]; [5]", "value": "103.7 ± 2.94"}, {"measurement": "Maximum Hip Flexion", "setting": "[2]; [5]", "value": "44.67 ± 5.47", "unit": "°"}, {"measurement": "Pelvic Angle", "setting": "[2]; [5]", "value": "41.00 ± 6.81", "unit": "°"}, {"measurement": "TTJ Angle", "setting": "[2]; [5]", "value": "157.00 ± 9.80", "unit": "°"}, {"measurement": "Hip (Resting) angle", "setting": "[2]; [6]", "value": "100.2 ± 6.01^2"}, {"measurement": "Maximum Hip Flexion", "setting": "[2]; [6]", "value": "46.33 ± 3.50^2 °"}, {"measurement": "Pelvic Angle", "setting": "[2]; [6]", "value": "36.83 ± 5.12^2 °"}, {"measurement": "TTJ Angle", "setting": "[2]; [6]", "value": "160.17 ± 8.84", "unit": "°"}, {"measurement": "CS Circumference", "setting": "[3]", "value": "3.67 ± 0.65", "unit": "mm/kg"}, {"measurement": "ECD (1-10)", "setting": "[4]; [5]", "value": "16.12 ± 5.88", "unit": "%"}, {"measurement": "ECD (1-10)", "setting": "[4]; [6]", "value": "32.04 ± 13.46", "unit": "%"}, {"measurement": "ECD (1-30)", "setting": "[4]; [5]", "value": "38.67 ± 10.34", "unit": "%"}, {"measurement": "ECD (1-30)", "setting": "[4]; [6]", "value": "54.48 ± 13.64", "unit": "%"}]}
